Measurements: US9539260B2, “Dihydro-benzo-oxazine and dihydro-pyrido-oxazine derivatives” (Novartis AG, priority 2012, dated 2017)

Legend:
PI3K delta = PI3K delta (Homo sapiens (Human), UniProt O00329); assay: Enzymatic PI3K delta isoform inhibition (lipid kinase activity, Kinase-Glo luminescence); format: biochemical; settings: Enzymatic assay
How it was run: (§1)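 IC50s derive from 4-parameter logistic fits of % inhibition across 8 concentrations (usually 10 to 0.003 μM). Lipid kinase reaction: PI3K (10 nM) plus phosphatidylinositol (5 μg/mL) started with 2 μM ATP, stopped near 50% ATP depletion; leftover ATP quantified by Kinase-Glo luminescence.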

PI3K alpha = PI3K alpha (Homo sapiens (Human), UniProt P42336); assay: Enzymatic PI3K alpha isoform inhibition (lipid kinase activity, Kinase-Glo luminescence); format: biochemical; settings: Enzymatic assay
Chain of PI3K alpha (P42336 other isoform, or with tags, fused parts or gaps): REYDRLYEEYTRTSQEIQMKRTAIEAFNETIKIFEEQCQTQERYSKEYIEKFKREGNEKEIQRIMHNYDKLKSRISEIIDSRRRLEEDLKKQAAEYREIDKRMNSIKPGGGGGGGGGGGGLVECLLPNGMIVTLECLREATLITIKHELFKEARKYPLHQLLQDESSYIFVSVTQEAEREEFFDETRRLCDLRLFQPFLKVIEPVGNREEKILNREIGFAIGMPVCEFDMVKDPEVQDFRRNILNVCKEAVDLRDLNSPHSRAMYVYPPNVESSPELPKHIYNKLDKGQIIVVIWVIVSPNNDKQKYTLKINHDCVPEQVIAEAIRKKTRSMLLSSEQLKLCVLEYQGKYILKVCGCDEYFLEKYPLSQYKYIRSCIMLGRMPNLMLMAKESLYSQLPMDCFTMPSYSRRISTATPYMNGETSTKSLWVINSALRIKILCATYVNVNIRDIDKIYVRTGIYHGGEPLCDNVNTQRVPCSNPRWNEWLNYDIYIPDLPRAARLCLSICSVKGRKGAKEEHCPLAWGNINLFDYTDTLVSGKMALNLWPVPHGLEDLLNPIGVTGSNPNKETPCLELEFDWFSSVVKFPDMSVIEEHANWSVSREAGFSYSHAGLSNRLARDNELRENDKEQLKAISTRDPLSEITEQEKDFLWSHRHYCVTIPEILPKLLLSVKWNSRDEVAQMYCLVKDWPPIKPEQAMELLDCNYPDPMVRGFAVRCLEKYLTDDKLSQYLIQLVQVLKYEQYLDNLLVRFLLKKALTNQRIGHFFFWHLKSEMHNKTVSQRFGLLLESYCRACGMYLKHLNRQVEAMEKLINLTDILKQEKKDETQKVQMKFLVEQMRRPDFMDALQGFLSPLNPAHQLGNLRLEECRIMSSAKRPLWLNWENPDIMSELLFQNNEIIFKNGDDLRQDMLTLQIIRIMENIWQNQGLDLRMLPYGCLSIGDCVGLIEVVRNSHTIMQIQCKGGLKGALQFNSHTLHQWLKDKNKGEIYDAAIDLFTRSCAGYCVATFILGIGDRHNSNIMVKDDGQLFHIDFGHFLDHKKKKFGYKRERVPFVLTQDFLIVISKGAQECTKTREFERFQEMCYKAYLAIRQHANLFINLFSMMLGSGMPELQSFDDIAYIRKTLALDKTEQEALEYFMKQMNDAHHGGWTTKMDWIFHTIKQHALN
How it was run: as §1

[1] = biological target: myristoylated catalytic subunit of human PI3K delta in Rat-1 cells (Homo sapiens (Human), UniProt O00329); assay: PI3K-mediated Akt 1/2 (S473) phosphorylation in Rat-1 cells, PI3K delta; format: cell-based; settings: Rat-1 cells overexpressing myristoylated human PI3K delta; p-Akt (S473) AlphaScreen SureFire; read-out: Cell PI3Kδ/ IC50
Chain of myristoylated catalytic subunit of human PI3K delta in Rat-1 cells (O00329 whole entry): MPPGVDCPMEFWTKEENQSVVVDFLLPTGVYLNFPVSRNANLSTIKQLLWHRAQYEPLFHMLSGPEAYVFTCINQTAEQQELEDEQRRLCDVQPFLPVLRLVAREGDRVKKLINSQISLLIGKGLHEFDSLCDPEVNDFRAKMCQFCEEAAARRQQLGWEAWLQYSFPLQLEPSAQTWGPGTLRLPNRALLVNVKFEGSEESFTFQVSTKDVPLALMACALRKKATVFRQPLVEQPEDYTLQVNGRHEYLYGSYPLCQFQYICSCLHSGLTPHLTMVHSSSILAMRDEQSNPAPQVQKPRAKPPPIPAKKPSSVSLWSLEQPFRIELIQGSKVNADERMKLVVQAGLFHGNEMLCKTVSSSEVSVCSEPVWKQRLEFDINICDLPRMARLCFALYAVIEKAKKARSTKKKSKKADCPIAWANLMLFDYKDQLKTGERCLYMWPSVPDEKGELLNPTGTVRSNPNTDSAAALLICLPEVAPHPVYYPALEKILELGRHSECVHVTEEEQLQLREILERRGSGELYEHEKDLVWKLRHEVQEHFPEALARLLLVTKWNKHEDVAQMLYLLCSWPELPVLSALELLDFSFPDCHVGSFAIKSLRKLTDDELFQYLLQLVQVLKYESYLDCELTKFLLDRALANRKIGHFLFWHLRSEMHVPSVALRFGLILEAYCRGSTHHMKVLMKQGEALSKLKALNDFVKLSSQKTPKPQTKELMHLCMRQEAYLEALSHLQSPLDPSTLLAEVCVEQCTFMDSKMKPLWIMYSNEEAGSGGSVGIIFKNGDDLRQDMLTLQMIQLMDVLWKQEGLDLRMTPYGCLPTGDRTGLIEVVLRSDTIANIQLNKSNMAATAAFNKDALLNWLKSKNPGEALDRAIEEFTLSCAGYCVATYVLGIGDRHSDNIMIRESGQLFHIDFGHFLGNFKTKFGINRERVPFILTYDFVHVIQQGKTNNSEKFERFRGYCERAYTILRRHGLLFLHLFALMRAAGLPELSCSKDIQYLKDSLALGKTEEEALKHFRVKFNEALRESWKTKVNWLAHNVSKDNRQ
Method: 2.1 Phosphoinositide-3 Kinase (PI3K)-Mediated Akt 1/2 (S473) Phosphorylation in Rat-1 Cells
Rat-1 cells stably overexpressing a myristoylated form of the catalytic subunit of human phosphoinositide-3 kinase (PI3K) alpha, beta or delta were plated in 384-well plates at a density of 7500 (PI3K alpha), 6200 (PI3K beta), or 4000 (PI3K delta) cells in 30 ul complete growth medium (Dulbecco's modified Eagle's medium (DMEM high glucose) supplemented with 10% (v/v) fetal bovine serum, 1% (v/v) MEM non essential amino acids, 10 mM HEPES, 2 mM L-glutamine, 10 μg/mL puromycin and 1% (v/v) Penicillin/Streptomycin) and were incubated at […]/5% CO2/95% humidity for 24 h. Compounds were diluted in 384-well compound plates to obtain 8-point serial dilutions for 40 test compounds in 90% DMSO, as well as 4 reference compounds plus 16 high controls and 16 low (inhibited) controls. Predilution plates were prepared by dispensing pipetting 250 nl of compound solutions into 384-well polypropylen plates using a Hummingwell nanoliter dispensor. Compounds were prediluted by the addition of 49.75 ul complete growth medium. 10 ul of prediluted compound solution were transferred to the cell plate using a 384-well pipettor, resulting in a final DMSO concentration of 0.11%.
Cells were incubated for 1 h at […]/5% CO2/95% humidity. The supernatant was removed, the cells were lysed in 20 ul of lysis buffer for AlphaScreen® SureFire® detection.
For detection of p-AKT(Ser473), the SureFire® p-Akt 1/2 (Ser473) Assay Kit (PerkinElmer, U.S.A) was used. 5 ul of cell lysate was transferred to 384-well low volume Proxiplates for detection using a 384-well pipettor. Addition of AlphaScreen® SureFire® reagents was done according to the manufacturer's protocol. First, 5 ul of reaction buffer plus activation buffer mix containing AlphaScreen® acceptor beads was added, the plate was sealed, and incubated on a plate shaker for 2 hours at room temperature. Second, 2 ul of dilution buffer containing AlphaScreen® donor beads was added, and the plate was incubated on plate shaker as above for a further 2 hours. The plate was read on an AlphaScreen® compatible plate reader, using standard AlphaScreen® settings.

[2] = system: rat B cells derived from whole blood; assay: Determination of rat B cell activation in whole blood (CD86 upregulation after anti-IgM and rIL-4); format: cell-based; settings: anti-IgM + rIL-4 stimulation, CD86 on CD45RA+ B cells, read-out: RWB/IC50 CD86
Method: 2.3 Determination of Rat B Cell Activation
PI3Kδ has been recognized to modulate B cell function when cells are stimulated through the B cell receptor (BCR) (Okkenhaug et al. Science 297:1031 (2002). For assessing the inhibitory property of compounds on B cell activation, the upregulation of activation markers CD86 on rat B cells derived from whole blood is measured after stimulation with anti-IgM and recombinant IL-4. The CD86 molecule (also known as B7-2) is primarily expressed on antigen-presenting cells, including B cells. Resting B cells express CD86 at low levels, but upregulate it following stimulation of e.g. the BCR or IL-4 receptor. CD86 on a B cell interacts with CD28 on T cells. This interaction is required for optimal T cell activation and for the generation of an optimal IgG1 response (Carreno et al. Annu Rev Immunol. 20:29 (2002)).
Whole blood was collected from the abdominal aorta adult male Lewis rats (LEW/HanHsd) oby using a 10 ml syringe with hypodermic needle pre-coated with sodium heparin. Blood was transferred into 50 ml Falcon tubes and the anticoagulant concentration was adjusted to 100 U/ml.
For assessment of the in vitro effects of immunosuppressive drugs, heparinized blood was prediluted to 50% with medium. As medium served DMEM high glucose (Animed cat#1-26F01-I) supplemented with 100 U/ml penicillin, […], 2 mM L-glutamin, 50 mg/ml dextran 40 and 5% fetal calf serum (FCS, Fetaclone I, Gibco #10270-106). Then, 190 μl prediluted blood was spiked with 10 μl of pre-diluted test compound in 96 well U-bottomed microtiter plates (Nunc) resulting in a 3-fold serial dilution with a concentration range from 20 to 0.0003 μM. Control wells were pretreated with DMSO to obtain a final concentration of 0.5% DMSO. Cultures were set up in duplicates, mixed well by agitation on a plate shaker (Heidolph Titramax 101; 30 sec, speed 900), pipetting up and down and agitated on the plate shaker again. Cultures were incubated at 37° C., 5% CO2 for 1 hr. Then, 20 μl of polyclonal goat anti-rat IgM Ab (Serotec, cat#302001) and 10 μl of diluted recombinant rIL-4 (Immunotools #340085) were added to obtain final concentrations of 30 μg/ml and 5 ng/ml, respectively. Plates were mixed by agitation on a plate shaker as above and incubated for 24 hrs at 37° C., 5% CO2.
After incubation, 15 μl of a 25 mM EDTA solution was added per well and shaken for 15 min to detach adherent cells. For analysis of surface activation markers, samples were then stained with PE-Cy5-labeled anti-ratCD45RA (BD cat#557015) to allow gating on B cells in FACS analysis. In addition, samples were stained with PE-labeled anti-rat CD86 (BD cat#551396). All staining procedures were performed at rt for 30 min in the dark. After incubation, samples were transferred to 96-deep well V-bottomed microtiter plates (Corning #396096) containing 2 ml/well of BD Lysing Solution (BD #349202). After lysis of erythrocytes samples were washed with 2 ml of CellWASH (BD #349524). Data was acquired on an LSRII or FACScalibur flow cytometer (BD Biosciences) using Cellquest Plus or DIVA (version 6.1.1) software, respectively. Lymphocytes were gated in the FSC/SSC dot blot according to size and granularity and further analyzed for expression of CD45RA and activation markers. Data were calculated from dot blots or histograms as percentage of cells positively stained for activation markers within the CD45RA+ population.
The percentage inhibition of B cell activation after exposure to drug was calculated by the following formula: […]
ORIGIN 7 software (OriginLab Corporation, Northampton, Mass.) was used for non-linear regression curve fitting.

Chain of PI3K delta (O00329 other isoform, or with tags, fused parts or gaps linker GGGGGG): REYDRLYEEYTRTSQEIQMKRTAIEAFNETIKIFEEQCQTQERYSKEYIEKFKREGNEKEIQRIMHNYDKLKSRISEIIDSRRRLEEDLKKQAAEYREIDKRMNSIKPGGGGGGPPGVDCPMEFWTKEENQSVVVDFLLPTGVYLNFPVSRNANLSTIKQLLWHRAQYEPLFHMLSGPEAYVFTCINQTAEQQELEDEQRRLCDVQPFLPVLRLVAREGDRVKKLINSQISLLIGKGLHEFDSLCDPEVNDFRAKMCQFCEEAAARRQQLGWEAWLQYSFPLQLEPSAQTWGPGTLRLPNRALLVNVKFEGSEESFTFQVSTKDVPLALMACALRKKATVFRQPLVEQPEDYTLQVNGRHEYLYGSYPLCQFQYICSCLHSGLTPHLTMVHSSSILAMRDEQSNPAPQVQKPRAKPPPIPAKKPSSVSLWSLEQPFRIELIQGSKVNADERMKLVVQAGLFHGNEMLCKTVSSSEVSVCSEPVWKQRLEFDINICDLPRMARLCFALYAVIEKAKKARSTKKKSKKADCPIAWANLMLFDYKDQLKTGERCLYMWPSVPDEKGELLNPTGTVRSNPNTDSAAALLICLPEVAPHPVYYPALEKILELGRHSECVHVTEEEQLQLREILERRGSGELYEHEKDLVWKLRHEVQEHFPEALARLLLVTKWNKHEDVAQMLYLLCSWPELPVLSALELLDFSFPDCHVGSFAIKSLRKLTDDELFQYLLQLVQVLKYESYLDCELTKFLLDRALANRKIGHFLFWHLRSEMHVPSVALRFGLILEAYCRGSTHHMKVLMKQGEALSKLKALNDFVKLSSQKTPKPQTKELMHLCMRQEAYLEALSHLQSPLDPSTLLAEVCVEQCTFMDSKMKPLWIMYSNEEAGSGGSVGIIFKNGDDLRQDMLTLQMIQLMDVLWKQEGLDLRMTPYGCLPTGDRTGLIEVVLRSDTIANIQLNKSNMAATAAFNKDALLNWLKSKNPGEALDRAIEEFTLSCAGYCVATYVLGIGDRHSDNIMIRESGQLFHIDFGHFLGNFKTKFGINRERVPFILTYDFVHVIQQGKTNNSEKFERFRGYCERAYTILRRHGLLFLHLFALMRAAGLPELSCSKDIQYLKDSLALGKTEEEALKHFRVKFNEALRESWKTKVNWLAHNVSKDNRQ

Row | SMILES | IC50 (PI3K delta) [nM] | IC50 (PI3K alpha) [nM] | IC50 [1] [nM] | IC50 [2] [nM]
1 | COc1ncc(N2CCOc3ccc(O[C@H]4CCN(C(=O)C5CCOCC5)C4)cc32)cc1C#N [Example C1, 2-Methoxy-5-{6-[(S)-1-(tetrahydro-pyran-4-carbonyl)-pyrrolidin-3-yloxy]-2,3-dihydro-benzo[1,4]oxazin-4-yl}-nicotinonitrile] | 19 | 300 | 81 | 68
2 | COc1ncc(N2CCOc3cnc(O[C@H]4CCN(C(=O)c5cn(C)cn5)C4)cc32)cc1C [Example E1, {(S)-3-[1-(6-Methoxy-5-methyl-pyridin-3-yl)-2,3-dihydro-1H-pyrido[3,4-b][1,4]oxazin-7-yloxy]-pyrrolidin-1-yl}-(1-methyl-1H-imidazol-4-yl)-methanone] | 4 | 98 | 7 | 78

Now from value to compound:

Row | IC50 (PI3K delta) [nM] | IC50 (PI3K alpha) [nM] | IC50 [1] [nM] | IC50 [2] [nM] | SMILES
3 | 14 | 390 | 154 | 29 | Cc1cc(N2CCOc3ccc(O[C@H]4CCN(C(=O)C5CCOCC5)C4)cc32)cnc1S(C)(=O)=O [Example B1, {(S)-3-[4-(6-Methanesulfonyl-5-methyl-pyridin-3-yl)-3,4-dihydro-2H-benzo[1,4]oxazin-6-yloxy]-pyrrolidin-1-yl}-(tetrahydro-pyran-4-yl)-methanone]
4 | < 3 | 494 | 18 | 14 | COc1ncc(N2CCOc3cnc(O[C@H]4CCN(C(=O)C5CCOCC5)C4)cc32)cc1C [Example E3, {(S)-3-[1-(6-Methoxy-5-methyl-pyridin-3-yl]-2,3-dihydro-1H-pyrido[3,4-b][1,4]oxazin-7-yloxy]-pyrrolidin-1-yl}-(tetrahydro-pyran-4-yl)-methanone]
5 | < 3 | 71 | 18 | 40 | COc1ncc(N2CCOc3cnc(O[C@H]4CCN(C(=O)C5CCS(=O)(=O)CC5)C4)cc32)cc1C(F)F [Example F7, {(S)-3-[1-(5-Difluoromethyl-6-methoxy-pyridin-3-yl)-2,3-dihydro-1H-pyrido[3,4-b][1,4]oxazin-7-yloxy]-pyrrolidin-1-yl}-(1,1-dioxo-hexahydro-1lambda*6*-thiopyran-4-yl)-methanone]
